Experimental data published in US20070129344A1, “Bicyclic 6-alkylidene-penem beta-lactamase inhibitors and beta-lactam antibiotic combination: a broad spectrum antibiotic” (priority 2005, published 2007).

Key:
E. coli GC 6368 (SHV-7) = assay: MIC microbroth dilution; β-lactamase class A (ESBL); type: cell-based; conditions: Cefepime + 4 ug/ml Compound 1
Experimental: (§1) The in vitro activities of the antibiotics were determined by the microbroth dilution method as recommended by the National Committee for Clinical Laboratory Standards (NCCLS). (NCCLS. 2000. Methods for Dilution Antimicrobial Susceptibility Tests for Bacteria That Grow Aerobically; Approved Standards: M7-A5, vol. 19. National Committee for Clinical Laboratory Standards, Villanova, Pa.). Mueller-Hinton II broth (MHBII)(BBL Cockeysville, Md.), was used for the testing procedure. […]. The plates were incubated for 18-22 hours at 35° C. in ambient air.

E. coli GC 1995 (TEM-10) = assay: as above; type: cell-based; conditions: Cefepime + 4 ug/ml Compound 1
Experimental: as §1

[1] = system: S. typhimurium GC 4197 CTX-M-5; assay: as above; type: cell-based; conditions: Cefepime + 4 ug/ml Compound 1
Experimental: as §1

E. coli GC 2300 (TEM-28) = assay: as above; type: cell-based; conditions: Cefepime + 4 ug/ml Compound 1
Experimental: as §1

[2] = system: E. coli GC 2017 (TEM-10 + pl 6.3; 8.1); assay: as above; type: cell-based; conditions: Cefepime + 4 ug/ml Compound 1
Experimental: as §1

E. coli GC 2400 (TEM-43) = assay: as above; type: cell-based; conditions: Cefepime + 4 ug/ml Compound 1
Experimental: as §1

E. coli GC 1684 (TEM-10) = assay: as above; type: cell-based; conditions: Cefepime + 4 ug/ml Compound 1
Experimental: as §1

[3] = system: K. pn GC 3104 (MIR-1 + TEM-1); assay: MIC microbroth dilution; β-lactamase class A, C; type: cell-based, K. pneumoniae; conditions: Cefepime + 4 ug/ml Compound 1
Experimental: as §1

[4] = system: K. pn GC 6655 (TEM-1 + ACT-1); assay: MIC microbroth dilution; β-lactamase class A, C; type: cell-based, K. pneumoniae; conditions: Cefepime + 4 ug/ml Compound 1
Experimental: as §1

[5] = system: K. pn GC 1554 (TEM-1 + TEM-26 + SHV-1); assay: MIC microbroth dilution; β-lactamase class A, A (ESBL); type: cell-based, K. pneumoniae; conditions: Cefepime + 4 ug/ml Compound 1
Experimental: as §1

[6] = system: K. pn GC 6657 (TEM-1 + SHV-27); assay: as above; type: cell-based, K. pneumoniae; conditions: Cefepime + 4 ug/ml Compound 1
Experimental: as §1

[7] = system: K. pn GC 3057 (CAZ-R; P/T-R); assay: as above; type: cell-based, K. pneumoniae; conditions: Cefepime + 4 ug/ml Compound 1
Experimental: as §1

[8] = system: K. pn GC 1963 (TEM-10 + SHV-1 + SHV-ESBL); assay: as above; type: cell-based, K. pneumoniae; conditions: Cefepime + 4 ug/ml Compound 1
Experimental: as §1

[9] = system: K. pn GC 6494 (TEM-1 + SHV-5); assay: as above; type: cell-based, K. pneumoniae; conditions: Cefepime + 4 ug/ml Compound 1
Experimental: as §1

[10] = system: K. pn GC 2006 (TEM-10 + SHV-1); assay: as above; type: cell-based, K. pneumoniae; conditions: Cefepime + 4 ug/ml Compound 1
Experimental: as §1

[11] = system: E. coli GAR 5929 TEM, OXA, Act-1, CTX (By PCR only); assay: MIC microbroth dilution; β-lactamase class A, C, D; type: cell-based; conditions: Cefepime + 4 ug/ml Compound 1
Experimental: as §1

[12] = system: A. baumannii GC 6660 IMI-R; assay: MIC microbroth dilution; class PBP (penicillin binding protein); type: cell-based; conditions: Cefepime + 4 ug/ml Compound 1
Experimental: as §1

[13] = system: A. baumannii GC 6662 IMI-R; assay: as above; type: cell-based; conditions: Cefepime + 4 ug/ml Compound 1
Experimental: as §1

[14] = system: A. baumannii GC 6661 IMI-R; assay: as above; type: cell-based; conditions: Cefepime + 4 ug/ml Compound 1
Experimental: as §1

[15] = system: K. pn GC 2391 (pl 5.4; 5.6; 7.6; 8.7 B-lactamases); assay: MIC microbroth dilution; β-lactamase class A, A (ESBL), C; type: cell-based, K. pneumoniae; conditions: Cefepime + 4 ug/ml Compound 1
Experimental: as §1

E. coli GC 2920 (IRT-2) = assay: MIC microbroth dilution; β-lactamase class A (IRT); type: cell-based; conditions: Cefepime + 4 ug/ml Compound 1
Experimental: as §1

[16] = system: P. aeruginosa PT 8503 PTZ-R; assay: MIC microbroth dilution; type: cell-based; conditions: Cefepime + 4 ug/ml Compound 1
Experimental: as §1

[17] = system: P. aeruginosa PT 9587 PTZ-R; assay: MIC microbroth dilution; type: cell-based; conditions: Cefepime + 4 ug/ml Compound 1
Experimental: as §1

[18] = system: P. aeruginosa PT 9236 PTZ-R; assay: MIC microbroth dilution; type: cell-based; conditions: Cefepime + 4 ug/ml Compound 1
Experimental: as §1

[19] = system: P. aeruginosa PT 8411 PTZ-R; assay: MIC microbroth dilution; type: cell-based; conditions: Cefepime + 4 ug/ml Compound 1
Experimental: as §1

E. coli GC 1807 OXA-7 = assay: MIC microbroth dilution; β-lactamase class D; type: cell-based; conditions: E. coli GC 1807; Cefepime + 4 ug/ml Compound 1
Experimental: as §1

E. coli GC 1480 OXA-1 = assay: MIC microbroth dilution; β-lactamase class D; type: cell-based; conditions: E. coli GC 1480; Cefepime + 4 ug/ml Compound 1
Experimental: as §1

[20] = system: S. maltophilia GC 1712 (L1); assay: MIC microbroth dilution; β-lactamase class B; type: cell-based; conditions: Cefepime + 4 ug/ml Compound 1
Experimental: as §1

K. pn GC 1516 (TEM-26) = assay: MIC microbroth dilution; β-lactamase class A (ESBL); type: cell-based, K. pneumoniae; conditions: Cefepime + 4 ug/ml Compound 1
Experimental: as §1

K. pn GC 1510 (TEM-10) = assay: as above; type: cell-based, K. pneumoniae; conditions: Cefepime + 4 ug/ml Compound 1
Experimental: as §1

K. pn GC 1832 (SHV-4) = assay: as above; type: cell-based, K. pneumoniae; conditions: Cefepime + 4 ug/ml Compound 1
Experimental: as §1

K. pn GC 1830 (SHV-2) = assay: as above; type: cell-based, K. pneumoniae; conditions: Cefepime + 4 ug/ml Compound 1
Experimental: as §1

K. pn GC 6639 (SHV-13) = assay: as above; type: cell-based, K. pneumoniae; conditions: Cefepime + 4 ug/ml Compound 1
Experimental: as §1

[21] = system: E. coli GAR 6649 TEM, OXA, CTX (By PCR only); assay: MIC microbroth dilution; β-lactamase class A, A (ESBL), D; type: cell-based; conditions: Cefepime + 4 ug/ml Compound 1
Experimental: as §1

O=C([O-])C1=CS[C@@H]2/C(=C\c3cn4c(n3)CCC4)C(=O)N12.[Na+] [Compound 1, (5R), (6Z)-6-(6,7-Dihydro-5H-pyrrolo[1,2-a]imidazol-2-ylmethylene)-7-oxo-4-thia-1-aza-bicyclo[3.2.0]hept-2-ene-2-carboxylic Acid, Sodium Salt]
MIC (E. coli GC 6368 (SHV-7)): 0.03 µg/mL | MIC (E. coli GC 1995 (TEM-10)): 0.06 µg/mL | MIC [1]: 1 µg/mL | MIC (E. coli GC 2300 (TEM-28)): 0.25 µg/mL | MIC [2]: 0.12 µg/mL | MIC (E. coli GC 2400 (TEM-43)): 0.50 µg/mL | MIC (E. coli GC 1684 (TEM-10)): 0.06 µg/mL | MIC [3]: 0.50 µg/mL | MIC [4]: 0.12 µg/mL | MIC [5]: 0.25 µg/mL | MIC [6]: 0.12 µg/mL | MIC [7]: 0.12 µg/mL | MIC [8]: 0.12 µg/mL | MIC [9]: 0.12 µg/mL | MIC [10]: 0.12 µg/mL | MIC [11]: 0.06 µg/mL | MIC [12]: >16 µg/mL | MIC [13]: >16 µg/mL | MIC [14]: 16 µg/mL | MIC [15]: 0.50 µg/mL | MIC (E. coli GC 2920 (IRT-2)): 0.06 µg/mL | MIC [16]: 2 µg/mL | MIC [17]: 2 µg/mL | MIC [18]: 16 µg/mL | MIC [19]: 4 µg/mL | MIC (E. coli GC 1807 OXA-7): <0.015 µg/mL | MIC (E. coli GC 1480 OXA-1): 0.06 µg/mL | MIC [20]: 16 µg/mL | MIC (K. pn GC 1516 (TEM-26)): 0.25 µg/mL | MIC (K. pn GC 1510 (TEM-10)): 0.06 µg/mL | MIC (K. pn GC 1832 (SHV-4)): 0.06 µg/mL | MIC (K. pn GC 1830 (SHV-2)): 0.03 µg/mL | MIC (K. pn GC 6639 (SHV-13)): 0.25 µg/mL | MIC [21]: 1 µg/mL
